# Laboratory results from patent US5811073A, “Method for radioisotopic detection and localization of inflammation in a host” (President and Fellows of Harvard College, priority 1995, dated 1998).
# Assays:
# [1] = test system: bacterial (E. coli) inflammatory lesions (pus capsule); assay: Biodistribution (pus capsule to contralateral tissue ratio) in rats with bacterial infection; assay type: in vivo; conditions: for Pus Capsule and Contralateral Tissue (T/B) Ratio, biodistribution: i.v., 10 μCi/rat ^67 Ga (n=2), 5 μCi/rat ^125 IUdR (n=5), mean ± SD
# Description: (§1) A frozen sample of E. coli bacteria (clinical isolate; ATCC 9339) was used to inoculate a 10 ml trypticase soy medium (trypticase soy broth, BBL #11768, 30 g/L water), and the tube was incubated overnight at […] This culture was used to grow single colonies by streaking the sample on agar plates (100 mm petri dishes each containing 15 ml of […] in the same medium). Good colonies develop in 10-11 hours at 37° C. The agar plates containing bacterial colonies were stored upside down at 4° C. A single colony of bacteria from the agar plate was used to inoculate 10 ml trypticase soy medium, and the tube was incubated overnight at 37° C. with vigorous shaking. Two ml of this overnight culture was transferred into 100 ml trypticase soy medium and the sample incubated at 37° C. with vigorous shaking until the culture reached an OD600 of ~0.8 (in about 2 hrs). This 100 ml culture contained ~6.4×10^10 bacterial cells (1 OD600 =8×10^8 cells/ml).
# (§2) The culture was centrifuged at 5500 rpm for 5 min at 4° C. in a Sorvall SS-34 rotor, the bacterial pellet resuspended in saline to give ~2.5×10^9 bacteria/ml, and 0.1 ml of resuspended cells injected into the left thigh muscle of each anesthetized rat.
# No-carrier added radioiodinated deoxyuridine (^125 IUdR) was synthesized by the method described in the above disclosure. Commercially available gallium-67 citrate of known biodistribution characteristics was obtained, for comparison to ^125 IUdR. 24 hrs after each rat described in Example 2 received an intramuscular injection of E. coli or after each rat described in Example 1 received an intramuscular injection of turpentine oil (to permit comparison of activity in a bacterial inflammation lesions to activity in a sterile inflammation lesions) in the left rear thigh, each rat received either ^125 IUdR (about 5 μCi/rat) or gallium-67 citrate (about 10 μCi/rat) suspended in 0.1 ml saline, by injection into the tail vein.
# At one, three and 24 hrs after ^125 IUdR or gallium-67 citrate administration, the animals from each group were anesthetized, blood collected via cardiac puncture, urine aspirated from the urinary bladder, and the rats humanely sacrificed. The biodistribution of each radiopharmaceutical (measured as a function of the % injected dose/gram body weight) was then determined in various normal tissues and organs, as well as the left and right legs, the pus capsule formed within the leg and in contralateral muscle tissues (i.e., background tissues unaffected by inflammation) of equivalent weight.
# To determine the distribution of each radiopharmaceutical in various tissues of each rat (i.e., the "biodistribution" of each radiopharmaceutical), samples of background tissues and organs (blood, lung, liver, spleen, kidney, muscle and intestine), of target tissue (the pus capsule formed in the leg) and of contralateral muscle tissue (background tissue adjacent to target tissue) were obtained from each rat and weighed. Radioactivity in each sample was measured in a well-type gamma counter (from LKB, Wallac Oy, Finland). To correct for radioactive decay and permit calculation of activity in each organ or tissue as a fraction of the injected dosage of radiopharmaceutical, aliquots of the injected doses were counted at the same time that radioactivity in each sample was determined. The results were measured as a function of the percentage of injected dose/gram (% ID/g). For further reference regarding measurements of biodistribution of radiopharmaceuticals, particularly in blood, those of ordinary skill in the art may wish to refer to Baker et al., "The Laboratory Rat" (Acad.Press N.Y., 1980).
# Ab = %ID/g over contralateral muscle
# [2] = test system: bacterial (E. coli) inflammatory lesions (pus capsule); assay: Gamma camera imaging of rats with bacterial infection; assay type: in vivo; parameters: key to Figure of Merit (FOM), equation (1): FOM=(At-Ab)^2/(At+Ab), from total counts target vs background; conditions: i.v.; for Figure of Merit (FOM), equation (1): 0.2 mCi ^67 Ga-citrate (n=3); for Figure of Merit (FOM), equation (1) / Pus Capsule to Contralateral Tissue (T/B) Ratio, gamma camera imaging: 1.5 mCi/rat ^123 IUdR (n=4); for Figure of Merit (FOM), equation (1) / Pus Capsule to Contralateral Tissue (T/B) Ratio, gamma camera imaging / Figure of Merit (FOM), equation (2): mean ± SD; for Pus Capsule to Contralateral Tissue (T/B) Ratio, gamma camera imaging: 0.2 mCi/rat ^67 Ga (n=3); for Figure of Merit (FOM), equation (2): n=3 (^67 Ga), n=4 (^123 IUdR)
# Description: as §1, §2
# A further set of rats prepared as described in Examples 1 and 2 received intravenous injections of either ^123 IUdR (at a dose of about 1.5 mCi/rat) or gallium-67 citrate (at a dose of about 0.2 mCi/rat). After 1, 3 and 24 hours, rats from each group were anesthetized and imaged using a gamma camera (the General Electric STARCAM™ 400 fitted with parallel hole medium collimator). Anterior images were obtained 10^6 counts/frame except for the 24 h period for ^123 IUdR where a 15 min scan was carried out. A 20% window was present over the 159 keV photopeaks of ^67 Ga (93 kev, 184 keV, and 298 keV).
# Regions of interest (ROI) were drawn over the inflamed areas (3×4 pixel) and over the contralateral area in each rat. Total counts in these regions were used to calculate Target to Background (T/B) ratios and to calculate Figure of Merit (FOM; statistical significance) values using either of the following equations:
# FOM=(At -Ab)^2 /(At +Ab) (1)
# At =counts in ROI (3×4) over pus capsule; and
# Ab =counts in ROI (3×4) over contralateral muscle.
# Equation (1) is derived from the Report of the National Council on Radiation Protection and Measurements, Nuclear Medicine, "Factors Influencing the Choice and Use of Radionuclides in Diagnosis and Therapy", Report No. 70, p.79 (NRCP, Bethesda, Md., 1982). Equation (2) is derived from Rubin et al., J. Nucl. Med. 30:385-389, 1989. For purposes of reference, the disclosures of each of these publications is incorporated herein.
compound,measurement,setting,value
"O=C([O-])CC(O)(CC(=O)[O-])C(=O)[O-].[67Ga+3] [^67 Ga, gallium-67 citrate]",concentration within lesion (pus capsule) vs contralateral tissues (in words),[1]; bacterial (E. coli) inflammation,to a greater extent than in the contralateral tissues
same,"Pus Capsule and Contralateral Tissue (T/B) Ratio, biodistribution","[1]; bacterial infection, 3 h",3.21 ± 0.13
same,"Pus Capsule and Contralateral Tissue (T/B) Ratio, biodistribution","[1]; bacterial infection, 24 h",4.07 ± 1.09
same,time of accumulation at the site of inflammation (in words),"[1]; bacterial infection, FIGS. 1 and 5",did not accumulate at the site of inflammation until several hours after its administration
same,detection of the lesion in scintigraphic images (in words),"[2]; 1, 3, and 24 h",can clearly detect the lesion
same,"Figure of Merit (FOM), equation (1)",[2]; 1 h,49 ± 60
same,"Pus Capsule to Contralateral Tissue (T/B) Ratio, gamma camera imaging",[2]; 1 h,1.26 ± 0.09
same,"Figure of Merit (FOM), equation (2)",[2]; 1 h,0.26 ± 0.11
same,"Figure of Merit (FOM), equation (1)",[2]; 3 h,306 ± 210
same,"Pus Capsule to Contralateral Tissue (T/B) Ratio, gamma camera imaging",[2]; 3 h,2.01 ± 0.24
same,"Figure of Merit (FOM), equation (2)",[2]; 3 h,1.01 ± 0.29
same,"Figure of Merit (FOM), equation (1)",[2]; 24 h,231 ± 135
same,"Pus Capsule to Contralateral Tissue (T/B) Ratio, gamma camera imaging",[2]; 24 h,1.91 ± 0.15
same,"Figure of Merit (FOM), equation (2)",[2]; 24 h,0.90 ± 0.21
